Laboratory results taken from US9447063B2, “Disubstituted adamantyl derivative or pharmaceutically acceptable salt thereof, production method for same, and pharmaceutical composition for suppressing cancer metastasis comprising same as active ingredient” (KOREA RESEARCH INSTITUTE OF BIOSCIENCE AND BIOTECHNOLOGY, priority 2012, dated 2016).

Experiments:
B16F10 melanoma cells = assay: Inhibition of metastasis in vivo in the test mouse (luciferase imaging); parameters: species or system C57BL/6 mice; details: for Weight changes over the administration time: C57BL/6 mice
Protocol: To evaluate the inhibition effect of the compound on metastasis, C57BL/6 mice were transplanted with B16F10 melanoma cells (2×10^6 cells/ml) expressing luciferase via intravenous injection (0.2 ml, 4×10^5 cells/mouse). One hour later, 50 μl of luciferin was administered to each mouse at the concentration of 15 mg/ml via intraperitoneal injection. Then, the compound prepared in Example 2 of the invention was intraperitoneally administered at the concentration of 50 mg/kg 13 times. […] The image of the mouse was photographed every day for 14 days with a live animal imaging system (PHOTON IMAGER, Biospace). On the last day of the experiment, the mouse was sacrificed by using CO2 gas. The lung was extracted from the mouse, and lung metastasis of the skin cancer cells was confirmed. To investigate toxicity, weight and other general symptoms were observed during the experimental period. At this time, all the values of each measurement title were examined by t-test for the statistical significance of the values obtained from the non-treated group, the group treated with the compound of Example 2, and the positive control group. The results are shown in Table 3, Table 4, FIG. 9, and FIG. 10.

[1] = system: human colorectal carcinoma cell line HCT116; assay: In vivo inhibition of cancer cell proliferation in the mouse by intraperitoneal administration (HCT116 transplant); parameters: species or system Balb/c nude mice; details: 30 mg/kg intraperitoneal; for Weight changes over the administration time: nude mice
Protocol: First, female Balb/c nude mice (6 weeks old) were administered with the compound prepared in Example 2 via intraperitoneal injection. […] One week later, any change in the tumor size was observed by comparing the volume of the first formed tumor and the volume measured one week after. On the last day, the tumor was weighed. […] All the values of each measurement title were examined by t-test to investigate the statistical significance of the values obtained from the non-treated group, the group treated with the compound of Example 2, and the positive control group.

CCN(CC)CCNC(=O)c1c(C)[nH]c(/C=C2\C(=O)Nc3ccc(F)cc32)c1C [sunitinib]
Weight changes over the administration time (B16F10 melanoma cells; 0 day): 100.0 ± 0.0% | Image signals over the administration time (B16F10 melanoma cells; 0 day, live animal imaging): 857.2 ± 679.3 photons/s/sr | Weight changes over the administration time (B16F10 melanoma cells; 2 days): 100.9 ± 2.2% | Weight changes over the administration time (B16F10 melanoma cells; 4 days): 102.9 ± 2.0% | Image signals over the administration time (B16F10 melanoma cells; 4 days, live animal imaging, Example 2 50 mg/kg, sunitinib 30 mg/kg): 222.0 ± 146.1 photons/s/sr | Weight changes over the administration time (B16F10 melanoma cells; 7 days): 103.0 ± 2.8% | Weight changes over the administration time (B16F10 melanoma cells; 9 days): 106.0 ± 3.1% | Inhibition rate of tumor metastasis (image signals) (B16F10 melanoma cells; 9 days, live animal imaging): (19.9%) | Image signals over the administration time (B16F10 melanoma cells; 9 days, live animal imaging, Example 2 50 mg/kg, sunitinib 30 mg/kg): 47.5 ± 10.7 photons/s/sr | Weight changes over the administration time (B16F10 melanoma cells; 11 days): 105.4 ± 2.9% | Weight changes over the administration time (B16F10 melanoma cells; 14 days): 107.7 ± 3.3% | Image signal at final day (B16F10 melanoma cells; 14 days, extracted lung imaging, Example 2 50 mg/kg, sunitinib 30 mg/kg): 21738.7 ± 14939.0 | Image signals over the administration time (B16F10 melanoma cells; 14 days, live animal imaging, Example 2 50 mg/kg, sunitinib 30 mg/kg): 13084.0 ± 8931.2 photons/s/sr | Inhibition rate of tumor growth (tumor volume) ([1]; 0 day): (0%) | Tumor volume over the administration time (Vt − Vo) ([1]; 0 day): 0.0 ± 0.0 | Weight changes over the administration time ([1]; 0 day): 100.0 ± 0.0% | Inhibition rate of tumor growth (tumor volume) ([1]; 2 days): (31.7%) | Weight changes over the administration time ([1]; 2 days): 100.5 ± 1.4% | Weight changes over the administration time ([1]; 4 days): 100.7 ± 2.0% | Tumor weight at final day ([1]; 7 days): 1064.9 ± 130.9 mg | Weight changes over the administration time ([1]; 7 days): 100.8 ± 3.3%
